# Measured values taken from patent publication US4661602A, “Substituted alkyl imidazole derivatives” (G. D. Searle & Co., priority 1985, dated 1987).
# Counter-ions that a name gives are not always drawn.
# Key:
# B. Fragilis WS-1 = assay: Anti-anaerobic activity, strain E (microtitre plate MIC/MBC); assay type: cell-based; settings: Bacteroides fragilis, 48 h, strain E; for MIC: 48 hours, 37° C., anaerobic chamber, lowest concentration with no detectable growth, read-out: MIC; for MBC: less than 5 colonies (99.9% reduction in viable count) after 48 hours, read-out: MBC
# B. Fragilis NCTC 9343 = assay: Anti-anaerobic activity, strain B (microtitre plate MIC/MBC); assay type: cell-based, Bacteroides fragilis; settings: Bacteroides fragilis, NCTC9343, 48 h, strain B; for MIC: 48 hours, 37° C., anaerobic chamber, lowest concentration with no detectable growth, read-out: MIC; for MBC: less than 5 colonies (99.9% reduction in viable count) after 48 hours, read-out: MBC
# B. Fragilis NCTC 9344 = assay: Anti-anaerobic activity, strain C (microtitre plate MIC/MBC); assay type: cell-based; settings: Bacteroides fragilis, NCTC9344, 48 h, strain C; for MIC: 48 hours, 37° C., anaerobic chamber, lowest concentration with no detectable growth, read-out: MIC; for MBC: less than 5 colonies (99.9% reduction in viable count) after 48 hours, read-out: MBC
# B. Fragilis ATCC 11295 = assay: Anti-anaerobic activity, strain D (microtitre plate MIC/MBC); assay type: cell-based; settings: Bacteroides fragilis, ATCC11295, 48 h, strain D; for MIC: 48 hours, 37° C., anaerobic chamber, lowest concentration with no detectable growth; for MBC: less than 5 colonies (99.9% reduction in viable count) after 48 hours, read-out: MBC
# B. Fragilis NCTC 10581 = assay: Anti-anaerobic activity, strain A (microtitre plate MIC/MBC); assay type: cell-based, Bacteroides fragilis; settings: Bacteroides fragilis, NCTC10581, 48 h, strain A; for MBC: less than 5 colonies (99.9% reduction in viable count) after 48 hours, read-out: MBC; for MIC: 48 hours, 37° C., anaerobic chamber, lowest concentration with no detectable growth, read-out: MIC
# [1] = test system: Peptococc. magnus ATCC 29328; assay: Anti-anaerobic activity, additional strains; assay type: cell-based; settings: Peptococc. magnus ATCC 29328
# P. acnes NCTC 7337 = assay: Anti-anaerobic activity, additional strains; assay type: cell-based, Propionibacterium acnes; settings: Cutibacterium acnes, NCTC7337, P. acnes NCTC 7337
# [2] = test system: Clostridium perfringens NCTC 523; assay: microbe, parasite or virus in culture; assay type: cell-based; settings: NCTC523
# [3] = test system: Cl. perfringens NCTC 8237; assay: microbe, parasite or virus in culture; assay type: cell-based; settings: Clostridium perfringens, NCTC8237
# Trichomonas vaginalis = assay: MIC against Trichomonas vaginalis (Diamonds Medium); assay type: cell-based
# Campl. fetus ATCC 29428 = assay: Anti-anaerobic activity, additional strains; assay type: cell-based; settings: Campylobacter fetus, ATCC29428, Campl. fetus ATCC 29428
# [4] = test system: Peptostrepto anaerobicus ATCC 27337; assay: Anti-anaerobic activity, additional strains; assay type: cell-based
# [5] = test system: Fuso. necrophorum ATCC 11295; assay: Anti-anaerobic activity, additional strains; assay type: cell-based; settings: Fusobacterium necrophorum, ATCC11295
# P. prevotti ATCC 9321 = assay: Anti-anaerobic activity, additional strains; assay type: cell-based
# [6] = test system: Propionibacterium acnes NCTC 737; assay: Anti-anaerobic activity, additional strains; assay type: cell-based; settings: Cutibacterium acnes, NCTC737
Compound,MIC (B. Fragilis WS-1),MIC (B. Fragilis NCTC 9343),MIC (B. Fragilis NCTC 9344),MIC (B. Fragilis ATCC 11295),MBC (B. Fragilis WS-1),MBC (B. Fragilis NCTC 10581),MBC (B. Fragilis NCTC 9343),MBC (B. Fragilis NCTC 9344),MBC (B. Fragilis ATCC 11295),MIC (B. Fragilis NCTC 10581),also measured
"Clc1ccccc1N1CCN=C1C(Cn1ccnc1)c1ccccc1 (stereo not shown) [Example 1, 1-(2-Chlorophenyl)-4,5-dihydro-2[2-(imidazol-1-yl)-1-phenylethyl]imidazole]",12.5 µg/mL,12.5 µg/mL,6.2 µg/mL,6.2 µg/mL,,,,,,,
"Brc1ccc(N2CCN=C2C(Cn2ccnc2)c2ccccc2)c(Br)c1 (stereo not shown) [Example 2, 1-(2,4-Dibromophenyl)-4,5-dihydro-2-[2-imidazol-1-yl)-1-phenylethyl]imidazole dihydrochloride]",,,1.5 µg/mL,1.5 µg/mL,2.5 µg/mL,3.1 µg/mL,12.5 µg/mL,50 µg/mL,12.5 µg/mL,,
"Clc1ccc(N2CCN=C2C(Cn2ccnc2)c2ccccc2)c(Cl)c1 (stereo not shown) [Example 3, 1-(2,4-Dichlorophenyl)-4,5-dihydro-2-[2-(imidazol-1-yl)-1-phenylethyl]imidazole hydrochloride]",1.5 µg/mL,1.5 µg/mL,,,,0.8 µg/mL,1.5 µg/mL,0.8 µg/mL,0.8 µg/mL,,"MIC [1]: 1.5 µg/mL; MBC ([1]; read-out: MBC): 6.2 µg/mL; MBC (P. acnes NCTC 7337; read-out: MBC): 0.8 µg/mL; MIC (P. acnes NCTC 7337; read-out: MIC): 0.8 µg/mL; MBC [2]: 3.1 µg/mL; MIC [2]: 0.8 µg/mL; MBC [3]: 3.1 µg/mL; MIC [3]: 3.1 µg/mL; MIC (Trichomonas vaginalis): 3.1 µg/mL; MBC (Campl. fetus ATCC 29428; read-out: MBC): 6.2 µg/mL; MIC (Campl. fetus ATCC 29428; read-out: MIC): 1.5 µg/mL; MBC [4]: 3.1 µg/mL; MIC ([4]; Peptostrepto anaerobicus ATCC 27337): 1.5 µg/mL; MIC [5]: 3.1 µg/mL; MBC ([5]; Fuso. necrophorum ATCC 11295, read-out: MBC): 6.2 µg/mL; MIC (P. prevotti ATCC 9321): 3.1 µg/mL; MBC (P. prevotti ATCC 9321; P. prevotti ATCC 9321): 12.5 µg/mL; MBC [6]: 3.1 µg/mL; MIC ([6]; Propionibacterium acnes NCTC 737, read-out: MIC): 0.8 µg/mL"
"FC(F)(F)c1cccc(N2CCN=C2C(Cn2ccnc2)c2ccccc2)c1 (stereo not shown) [Example 4, 4,5-Dihydro-2-[2-(imidazol-1-yl)-1-phenylethyl]-1-(3-trifluoromethylphenyl)imidazole hydrochloride]",12.5 µg/mL,12.5 µg/mL,12.5 µg/mL,12.5 µg/mL,,,,,,6.2 µg/mL,
"Clc1ccc(CN2CCN=C2C(Cn2ccnc2)c2ccccc2)c(Cl)c1 (stereo not shown) [Example 15, 1-(2,4-Dichlorophenylmethyl)-4,5-dihydro-2-[2-(imidazol-1-yl)-1-phenylethyl]imidazole]",6.2 µg/mL,,,,,,,,,,
"Clc1ccc(CN2CCN=C2C(Cn2cccn2)c2ccccc2)c(Cl)c1 (stereo not shown) [Example 16, 1-(2,4-Dichlorophenylmethyl)-4,5-dihydro-2-[1-phenyl-2-(pyrazol-1-yl)ethyl]imidazole dihydrochloride]",100 µg/mL,,,,,,,,,,
"Clc1ccc(CN2CCN=C2C(Cn2cncn2)c2ccccc2)c(Cl)c1 (stereo not shown) [Example 17, 1-(2,4-Dichlorophenylmethyl)-4,5-dihydro-2-[1-phenyl-2-(1,2,4-triazol-1-yl)ethyl]imidazole dihydrochloride]",50 µg/mL,,50 µg/mL,50 µg/mL,,,,,,50 µg/mL,
"c1ccc(CCCN2CCN=C2C(Cn2ccnc2)c2ccccc2)cc1 (stereo not shown) [Example 18, 4,5-Dihydro-2-[2-(imidazol-1-yl)-1-phenylethyl]-1-(3-phenylpropyl)imidazoledihydrochloride]",25 µg/mL,25 µg/mL,50 µg/mL,25 µg/mL,,,,,,25 µg/mL,
"CCCCCCCCN1CCN=C1C(Cn1ccnc1)c1ccccc1 (stereo not shown) [Example 19, 4,5-Dihydro-2-[2-(imidazol-1-yl)-1-phenylethyl]-1-n-octylimidazole dihydrochloride]",12.5 µg/mL,,12.5 µg/mL,25 µg/mL,12.5 µg/mL,25 µg/mL,6.2 µg/mL,25 µg/mL,100 µg/mL,12.5 µg/mL,
"Clc1ccc(N2CCN=C2C(Cn2cncn2)c2ccccc2)c(Cl)c1 (stereo not shown) [Example 20, 1-(2,4-Dichlorophenyl)-4,5-dihydro-2-[1-phenyl-2-(1,2,4-triazol-1-yl)ethyl]imidazole]",25 µg/mL,25 µg/mL,25 µg/mL,25 µg/mL,,,,,,12.5 µg/mL,
"Cc1nccn1CC(C1=NCCN1c1ccc(Cl)cc1Cl)c1ccccc1 (stereo not shown) [Example 21, 1-(2,4-Dichlorophenyl)-4,5-dihydro-2-[2-(2-methylimidazol-1-yl)-1-phenylethyl]imidazole dihydrochloride]",,1.5 µg/mL,,,0.8 µg/mL,12.5 µg/mL,1.5 µg/mL,0.8 µg/mL,0.8 µg/mL,12.5 µg/mL,
"CSc1nccn1CC(C1=NCCN1c1ccc(Cl)cc1Cl)c1ccccc1 (stereo not shown) [Example 22, 1-(2,4-Dichlorophenyl)-4,5-dihydro-2-[1-phenyl-2-(2-thiomethylimidazol-1-yl)ethyl]imidazole dihydrochloride]",,1.5 µg/mL,,,3.1 µg/mL,6.2 µg/mL,1.5 µg/mL,3.1 µg/mL,3.1 µg/mL,6.2 µg/mL,
"CC1=NCCN1CC(C1=NCCN1c1ccc(Cl)cc1Cl)c1ccccc1 (stereo not shown) [Example 23, 1-(2,4-Dichlorophenyl)-4,5-dihydro-2-[2-(4,5-dihydro-2-methylimidazol-1-yl)-1-phenylethyl]imidazole dihydrochloride]",,1.5 µg/mL,1.5 µg/mL,1.5 µg/mL,1.5 µg/mL,1.5 µg/mL,3.1 µg/mL,1.5 µg/mL,1.5 µg/mL,1.5 µg/mL,
"Cc1ccc(N2CCN=C2C(Cn2ccnc2)c2ccccc2)c(C)c1 (stereo not shown) [Example 24, 4,5-Dihydro-1-(2,4-dimethylphenyl)-2-[2-(imidazol-1-yl)-1-phenylethyl]imidazole dihydrochloride]",25 µg/mL,12.5 µg/mL,12.5 µg/mL,12.5 µg/mL,,,,,,25 µg/mL,
"CCCCCCN1CCN=C1C(Cn1ccnc1)c1ccccc1.Cl (stereo not shown) [Example 25, 4,5-Dihydro-1-n-hexyl-2-[2-(imidazol-1-yl)-1-phenylethyl]imidazole hydrochloride]",100 µg/mL,100 µg/mL,100 µg/mL,100 µg/mL,,,,,,25 µg/mL,
"CCCCCCCCCCN1CCN=C1C(Cn1ccnc1)c1ccccc1.Cl.Cl (stereo not shown) [Example 26, 1-n-Decyl-4,5-dihydro-2-[2-(imidazol-1-yl)-1-phenylethyl]imidazole dihydrochloride]",,,,,3.1 µg/mL,3.1 µg/mL,,3.1 µg/mL,50 µg/mL,2.1 µg/mL,
"Clc1ccc(N2CCN=C2C(CCn2ccnc2)c2ccccc2)c(Cl)c1 (stereo not shown) [Example 27, 1-(2,4-Dichlorophenyl)-4,5-dihydro-2-[3-(imidazol-1-yl)-1-phenylpropyl]imidazole]",12.5 µg/mL,100 µg/mL,100 µg/mL,100 µg/mL,,,,,,100 µg/mL,
